{
  "source": "patent US20240415918A1",
  "about": "“Polypeptide and its use as a CCK receptor agonist/antagonist” (Centre for Regenerative Medicine & Health, Hong Kong …, priority 2021, published 2024)",
  "key": {"senile wild-type mice": {"tested_on": "senile wild-type mice", "test": "Morris water maze, senile wild-type mice", "format": "in vivo, mice (C57BL/6)", "conditions": "intraperitoneal injection"}, "memory-deficient mice": {"tested_on": "memory-deficient mice", "test": "Morris water maze, memory-deficient mice", "format": "in vivo", "conditions": "intraperitoneal injection, CCK4 four times a day 10 days, HT compounds once a day 8 days", "source_text": "Adult memory-deficient mice were housed under standard conditions with free access to food and water. Our Morris water maze experiment for testing memory-deficient mice mainly included two parts: positioning navigation experiment and space exploration experiment. The experimental methods were the same as Example 5. We randomized memory-deficient mice into six groups, with the first group given intraperitoneal injection of the CCK4 solution, the second group given intraperitoneal injection of the solvent of CCK4 solution as a control, the third group given intraperitoneal injection of the compound HT-267 solution, the fourth group given intraperitoneal injection of the compound HT-177 solution, the fifth group given intraperitoneal injection of the compound HT-178 solution, and the sixth group given intraperitoneal injection of the solvent of compound solution as a control. In the positioning navigation experiment, the treatment and training methods of the first and the second groups were the same as those of the first and second groups in Example 5, that is, four times of treatment a day, four times of training a day, for a total of 10 days of training. The treatment and training methods of the third to sixth groups were the same as the third and fourth groups in Example 5, that is, one treatment a day, four times of training a day, for a total of 8 days of training. In the space exploration experiment, the spatial memory ability of mice was tested in the same way for each group."}, "[1]": {"conditions": "mouse, in vivo; cited from earlier work"}, "[2]": {"conditions": "male, KM, mouse, in vivo, iv, 1 mg/kg"}, "[3]": {"tested_on": "tri-transgenic Alzheimer's mice (3×Tg-AD)", "test": "Morris water maze, Alzheimer's mice", "format": "in vivo", "conditions": "intraperitoneal injection", "source_text": "Adult male tri-transgenic Alzheimer's mice (3×Tg-AD) were housed under standard conditions with free access to food and water. Our Morris water maze experiment for testing Alzheimer's mice mainly included two parts: positioning navigation experiment and space exploration experiment. The positioning navigation experiment lasted for 8-10 days, and the mice were put into the water four times a day from four entry points facing the pool wall, and the time they spent in finding the hidden platform under the water surface (evasion latency) was recorded. The space exploration experiment was to remove the platform after the positioning navigation experiment, and then put the mice into the pool, record their swimming tracks within one minute, investigate the memory of the mice on the original platform, and calculate the proportion of exploration duration of the mice in the quadrant where the original platform was located (target quadrant). Alzheimer's mice were confirmed to have memory deficiency in the Morris water maze experiment, showing not only a longer evasion latency for positioning the hidden platform in the positioning navigation experiment, but also a worse memory backtracking ability in the space exploration experiment. We randomized Alzheimer's mice into four groups, with the first group given intraperitoneal injection of the CCK4 solution, the second group given intraperitoneal injection of the solvent of CCK4 solution as a control, the third group given intraperitoneal injection of the compound HT-267 solution, and the fourth group given intraperitoneal injection of the solvent of HT-267 solution as a control."}},
  "data": [
    {"smiles": "CSCC[C@H](NC(=O)[C@@H](N)Cc1c[nH]c2ccccc12)C(=O)N[C@@H](CC(=O)O)C(=O)N[C@@H](Cc1ccccc1)C(N)=O", "note": "[CCK4, Trp-Met-Asp-Phe-NH2, reference compound]", "values": [
      {"measurement": "evasion latency in positioning navigation experiment vs control", "setting": "senile wild-type mice", "result": "shorter than that of the control group"},
      {"measurement": "spatial exploration tracks in space exploration experiment", "setting": "senile wild-type mice", "result": "more spatial exploration tracks at the original position of the platform"},
      {"measurement": "proportion of exploration duration in the target quadrant vs control", "setting": "memory-deficient mice", "result": "significantly higher than that in the control group"},
      {"measurement": "half-life", "setting": "[1]", "result": "less than 5 minutes"},
      {"measurement": "concentration in blood samples (below detection limitation)", "setting": "[2]", "result": "< 50", "unit": "ng/mL"},
      {"measurement": "proportion of exploration duration in the target quadrant vs control", "setting": "[3]", "result": "significantly higher than the control group"},
      {"measurement": "spatial exploration tracks in space exploration experiment", "setting": "[3]", "result": "more spatial exploration tracks at the original position of the platform"},
      {"measurement": "evasion latency in positioning navigation experiment vs control", "setting": "[3]; CCK4 four times a day 10 days, HT-267 once a day 8 days", "result": "shorter than that of the control group"}
    ]}
  ]
}
